In assay [1] the target is T1, 5-hydroxytryptamine receptor 1A (Homo sapiens, UniProt P08908).
T1 sequence (P08908 whole entry): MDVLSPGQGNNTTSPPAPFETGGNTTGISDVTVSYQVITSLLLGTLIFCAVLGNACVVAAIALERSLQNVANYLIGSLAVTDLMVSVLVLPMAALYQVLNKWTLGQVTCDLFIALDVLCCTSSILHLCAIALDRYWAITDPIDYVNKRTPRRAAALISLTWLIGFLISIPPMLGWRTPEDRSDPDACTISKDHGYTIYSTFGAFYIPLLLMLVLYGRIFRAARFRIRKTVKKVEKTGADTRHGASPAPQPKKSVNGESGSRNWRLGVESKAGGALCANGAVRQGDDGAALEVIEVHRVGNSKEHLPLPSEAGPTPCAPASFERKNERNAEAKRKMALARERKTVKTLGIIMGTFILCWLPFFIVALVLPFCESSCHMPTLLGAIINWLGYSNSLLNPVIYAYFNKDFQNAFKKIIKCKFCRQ
In words: Binding affinity towards 5-hydroxytryptamine 1A receptor in human using [3H]8-OH-DPAT as radioligand.

Assay [2] deals with T2, 5-hydroxytryptamine receptor 1A (Homo sapiens) (UniProt P08908).
T2 sequence (whole entry): T1 sequence (P08908 whole entry)
In words: Maximal stimulation of expressed human 5-hydroxytryptamine 1A receptor assayed by [35S]GTP-gamma-S, binding. Format: functional. (GTPγS is a poorly hydrolysed GTP analogue; its binding reports G protein activation.)

The target of assay [3] is Sodium-dependent serotonin transporter (Rattus norvegicus, UniProt P31652). The assay can be described thus: Affinity at the 5-HT reuptake site labeled with [3H]paroxetine using rat frontal cortex membranes. Format: tissue-based, Membrane.

Molecules are shown by their SMILES.

Sodium-dependent serotonin transporter, sequence (P31652 whole entry): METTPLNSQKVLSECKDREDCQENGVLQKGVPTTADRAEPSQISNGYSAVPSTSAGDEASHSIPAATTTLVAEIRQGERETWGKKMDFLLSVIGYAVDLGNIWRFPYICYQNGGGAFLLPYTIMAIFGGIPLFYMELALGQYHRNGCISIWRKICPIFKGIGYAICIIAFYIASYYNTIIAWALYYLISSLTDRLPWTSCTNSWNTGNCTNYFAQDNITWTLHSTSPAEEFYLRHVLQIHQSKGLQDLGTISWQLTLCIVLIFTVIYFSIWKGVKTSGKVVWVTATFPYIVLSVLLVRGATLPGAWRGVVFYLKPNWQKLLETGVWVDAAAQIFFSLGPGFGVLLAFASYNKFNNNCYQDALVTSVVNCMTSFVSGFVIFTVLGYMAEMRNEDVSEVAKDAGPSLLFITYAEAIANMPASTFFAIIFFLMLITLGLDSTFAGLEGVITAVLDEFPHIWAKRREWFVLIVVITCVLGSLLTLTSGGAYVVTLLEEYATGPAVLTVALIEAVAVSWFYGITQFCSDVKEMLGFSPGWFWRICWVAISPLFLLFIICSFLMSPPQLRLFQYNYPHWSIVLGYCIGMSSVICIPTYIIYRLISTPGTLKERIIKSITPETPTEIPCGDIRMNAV

The Ki is the equilibrium dissociation constant of an inhibitor or competing ligand from its target. A low value points to higher affinity. In general, Emax refers to the size of the effect at its maximum, as opposed to the concentration needed. Regarding `Cc1cc2c(OC[C@@H](O)CN3CC[C@@H](c4cc5cc(Cl)ccc5s4)C[C@@H]3C)cccc2[nH]1`, the Ki in assay [1] amounted to 15.7 nM; in assay [3], 1.02 nM. Also, in assay [2], the Emax was 8.42%.
With `Cc1cc2c(OC[C@@H](O)CN3CC[C@@H](c4cc5c(F)cccc5s4)C[C@@H]3C)cccc2[nH]1`, the Ki in assay [1] is 0.75 nM; in assay [3], 0.92 nM. The same compound had an Emax in assay [2] of 3.15%.
The matching figures for `COc1cccc2sc([C@@H]3CCN(C[C@H](O)COc4cccc5[nH]c(C)cc45)[C@@H](C)C3)cc12`: 14.3 nM, 0.86 nM and 4.76%.
Regarding `Cc1cc2c(OC[C@@H](O)CN3CC[C@@H](c4cc5c(C)cccc5s4)C[C@@H]3C)cccc2[nH]1`, the Ki in assay [1] stood at 10.5 nM; in assay [3] it was 0.62 nM. This compound registered an Emax in assay [2] of 6.32%.
Turning to `Cc1cc2c(OC[C@@H](O)CN3CC[C@H](c4cc5cccc(F)c5s4)C[C@H]3C)cccc2[nH]1`, the Ki was 9.8 nM in assay [1] and 6.06 nM in assay [3]. Moreover, the Emax in assay [2] turned out to be 6.35%.
For the compound `COc1cccc2sc(C3CCN(C[C@H](O)COc4cccc5[nH]c(C)cc45)C(C)(C)C3)cc12` (stereo in doubt; 29), the Ki was determined as 42.8 nM in assay [1] and 20.5 nM in assay [3].
Regarding `Cc1cc2c(OC[C@@H](O)CN3CC[C@@H](c4cc5cccc(F)c5s4)C[C@@H]3C)cccc2[nH]1`, the Ki in assay [1] was found to be 1.34 nM; in assay [3], 1.29 nM. In assay [2], this compound registered an Emax of 4.09%.
The corresponding values for `COc1cccc2sc([C@@H]3CCN(C[C@H](O)COc4cccc5[nH]c(C(N)=O)cc45)[C@H](C)C3)cc12` are 12.7 nM, 16.2 nM and 7.21%.
With `COc1cccc2sc([C@H]3CCN(C[C@H](O)COc4cccc5[nH]c(C(N)=O)cc45)[C@H](C)C3)cc12`, the Ki in assay [1] was found to be 32 nM; in assay [3], 1.22 nM.
For the compound `COc1ccc2cc([C@@H]3CCN(C[C@H](O)COc4cccc5[nH]c(C)cc45)[C@@H](C)C3)sc2c1`, the Ki turned out to be 13.5 nM in assay [1] and 2.37 nM in assay [3]. This compound gave an Emax in assay [2] of 3.21%.
With `COc1cc(OC)c2cc([C@@H]3CCN(C[C@H](O)COc4cccc5[nH]c(C)cc45)[C@@H](C)C3)sc2c1`, the Ki in assay [1] is 23.1 nM; in assay [3], 2.79 nM. Moreover, in assay [2], the Emax amounted to 7.62%.
Turning to `Cc1cc(C)c2cc([C@@H]3CCN(C[C@H](O)COc4cccc5[nH]c(C)cc45)[C@@H](C)C3)sc2c1`, the Ki came out at 105 nM in assay [1] and 1.99 nM in assay [3].
For `COc1cccc2sc([C@H]3CCN(C[C@H](O)COc4cccc5[nH]c(C)cc45)[C@H](C)C3)cc12`, the Ki came to 28.1 nM in assay [1] and 3.3 nM in assay [3]. Besides, the Emax in assay [2] turned out to be 2.38%.
On to `Cc1cc2c(OC[C@@H](O)CN3CC[C@@H](c4cc5ccc(F)cc5s4)C[C@@H]3C)cccc2[nH]1`, for which the Ki was found to be 12.3 nM in assay [1] and 0.39 nM in assay [3]. The Emax in assay [2] stood at 7.26%.
On to `COc1cccc2sc(C3CCN(C[C@H](O)COc4cccc5[nH]c(C)cc45)C(C)(C)C3)cc12` (stereo in doubt; 28), for which the values for the Ki in assay [1] and in assay [3] were 9.42 nM and 118 nM, respectively.
As to `Cc1ccc2cc([C@@H]3CCN(C[C@H](O)COc4cccc5[nH]c(C)cc45)[C@@H](C)C3)sc2c1`, the Ki in assay [3] was determined as 1.28 nM.
In the case of `Cc1cc2c(OC[C@@H](O)CN3CC[C@@H](c4cc5cccc(F)c5s4)C[C@H]3C)cccc2[nH]1`, the Ki in assay [1] amounted to 2.12 nM; in assay [3], 34.4 nM.
For the compound `COc1cccc2sc([C@H]3CCN(C[C@H](O)COc4cccc5oc(C)cc45)[C@@H](C)C3)cc12`, in assay [3], the affinity, expressed as Ki, was 76.1 nM.
Take `COc1cccc2sc([C@@H]3C[C@H]4CC[C@@H](C3)N4C[C@H](O)COc3cccc4[nH]ccc34)cc12`: the Emax in assay [2] came out at 7.22%.
On to `COc1cccc2sc([C@H]3C[C@H]4CC[C@@H](C3)N4C[C@H](O)COc3cccc4[nH]ccc34)cc12`, for which the affinity in assay [3] corresponds to a Ki of 0.17 nM.
In the case of `Cc1cc2c(OC[C@@H](O)CN3CC[C@@H](c4cc5ccccc5s4)C[C@@H]3C)cccc2[nH]1`, the Ki in assay [1] is 7.11 nM; in assay [3], 0.53 nM. In addition, in assay [2], the Emax amounted to 6.09%.
Consider `COc1cccc2sc([C@@H]3CCN(C[C@H](O)COc4cccc5oc(C)cc45)[C@H](C)C3)cc12`, for which the Ki amounted to 4.84 nM in assay [1] and 110 nM in assay [3].
`COc1cccc2sc([C@@H]3CCN(C[C@H](O)COc4cccc5[nH]c(C(N)=O)cc45)[C@@H](C)C3)cc12`: the Ki in assay [1] stood at 6.36 nM; in assay [3], 0.56 nM. In addition, the Emax in assay [2] is 12.8%.
As for `COc1cccc2sc([C@@H]3CCN(C[C@H](O)COc4cccc5oc(C)cc45)[C@@H](C)C3)cc12`, the Ki in assay [1] was found to be 4.06 nM; in assay [3], 38.5 nM. In addition, in assay [2], the Emax stood at 8.76%.
In turn, `COc1cccc2sc([C@H]3CCN(C[C@H](O)COc4cccc5[nH]c(C(N)=O)cc45)[C@@H](C)C3)cc12` gave a Ki in assay [3] of 6.61 nM.
Consider `COc1cccc2sc([C@@H]3CCN(C[C@H](O)COc4cccc5[nH]c(C)cc45)[C@H](C)C3)cc12`, for which the Ki in assay [1] is 20.2 nM; in assay [3], 29 nM. Moreover, the Emax in assay [2] is 1.8%.
With `COc1cccc2sc([C@@H]3C[C@H]4CC[C@@H](C3)N4C[C@H](O)COc3cccc4[nH]c(C(N)=O)cc34)cc12`, the Ki in assay [1] came to 12.4 nM; in assay [3], 0.37 nM. In assay [2], this compound returned an Emax of 11.3%.
The corresponding values for `COc1cccc2sc([C@@H]3C[C@H]4CC[C@@H](C3)N4C[C@H](O)COc3cccc4[nH]c(C)cc34)cc12` are 9.2 nM, 0.69 nM and 2.98%.
On to `Cc1cc2c(OC[C@@H](O)CN3CC[C@@H](c4cc5cc(F)ccc5s4)C[C@@H]3C)cccc2[nH]1`, for which the Ki in assay [1] came to 5.65 nM; in assay [3], 0.24 nM. In assay [2], this compound yielded an Emax of 9.05%.
As to `COc1cccc2sc([C@H]3CCN(C[C@H](O)COc4cccc5oc(C)cc45)[C@H](C)C3)cc12`, the Ki in assay [1] came to 26.8 nM; in assay [3] it was 15.2 nM. The same compound registered an Emax in assay [2] of 6.49%.
`Cc1cc2c(OC[C@@H](O)CN3CC[C@H](c4cc5cccc(F)c5s4)C[C@@H]3C)cccc2[nH]1`: the Ki in assay [1] was determined as 19.4 nM; in assay [3], 47.5 nM.
In the case of `COc1cccc2sc([C@H]3C[C@H]4CC[C@@H](C3)N4C[C@H](O)COc3cccc4[nH]c(C)cc34)cc12`, the Ki in assay [1] is 20.9 nM; in assay [3], 0.45 nM. In assay [2], this compound returned an Emax of 7.92%.
